Results as given in article PMC3387330 (Amino acids, 2012).

Assay: Metabolic stability of parent peptide in rat hepatocytes
Details: male, Sprague-Dawley

Structure (SMILES): CSCC[C@H](NC(=O)[C@H](CC(C)C)NC(=O)[C@H](Cc1c[nH]cn1)NC(=O)CNC(=O)[C@@H](NC(=O)[C@H](C)NC(=O)[C@H](Cc1c[nH]c2ccccc12)NC(=O)[C@H](CCC(N)=O)NC(=O)CCCCCNC(=O)C(C)F)C(C)C)C(N)=O (some centres unmarked) [FP-BBN, FP-aca-QWAVGHLM-NH2]
- half-life at 10 µM: ~25 min

Structure (SMILES): CSCC[C@H](NC(=O)[C@H](CC(C)C)NC(=O)[C@H](Cc1c[nH]cn1)NC(=O)CNC(=O)[C@@H](NC(=O)[C@H](C)NC(=O)[C@H](Cc1c[nH]c2ccccc12)NC(=O)[C@H](CCC(N)=O)NC(=O)CCCCCNC(=O)c1ccc(F)cc1)C(C)C)C(N)=O [FB-BBN, FB-aca-QWAVGHLM-NH2]
- half-life at 10 µM: ~3.8 min
